From US20240207427A1, “SELECTIVE DRUG RELEASE FROM INTERNALIZED CONJUGATES OF BIOLOGICALLY ACTIVE COMPOUNDS” (priority 2021, published 2024)
Read-outs that look alike come from different tables or passages of the source.

Columns and labels:
Format in all cases: cell-based
[1] = test system: Hodgkin's lymphoma cells (L540cy); assay: In vitro potency (CellTiter-Glo, 96 h), L540cy
Procedure, shortened: (§1)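 Log-phase cells were seeded for 24 h in RPMI 1640 with 20% FBS, then exposed to serially diluted antibody-drug conjugates or free camptothecin drug for 4 days at 37 °C. Growth inhibition was read by luminescence, and IC50 values were reported in ng/mL and nmol/L.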

[2] = test system: breast cancer cells (MDA-MB-231); assay: In vitro potency (CellTiter-Glo, 96 h), MDA-MB-231; conditions: Homo sapiens, MDA-MB-231, 96 h
Procedure, shortened: as §1

[3] = test system: acute myeloid leukemia cells (MOLM-13); assay: In vitro potency (CellTiter-Glo, 96 h), MOLM-13; conditions: Homo sapiens, MOLM-13, 96 h
Procedure, shortened: (§2)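 Cells in log-phase growth seeded 24 h in RPMI 1640 with 20% FBS, then exposed to serially diluted ADC or CPT free drug for 96 h at 37 °C. Growth inhibition read by CellTiter-Glo luminescence; IC50 reported in ng/mL or nmol/L.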

melanoma cells (A2058) = assay: In vitro potency (CellTiter-Glo, 96 h), A2058; conditions: Homo sapiens, A2058, 96 h
Procedure, shortened: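 Cells in log-phase growth are plated in RPMI 1640/20% FBS for 24 h. Serially diluted conjugates are then added, and plates are kept at 37 °C for 4 days before ATP-based luminescence gives growth inhibition.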

[4] = test system: anaplastic large cell lymphoma cells (DELBVR); assay: In vitro potency (CellTiter-Glo, 96 h), DELBVR
Procedure, shortened: as §1

[5] = test system: anaplastic large cell lymphoma cells (Karpas299); assay: In vitro potency (CellTiter-Glo, 96 h), Karpas299; conditions: Homo sapiens, KARPAS-299, 96 h
Procedure, shortened: as §1

[6] = test system: anaplastic large cell lymphoma cells (DEL); assay: In vitro potency (CellTiter-Glo, 96 h), DEL
Procedure, shortened: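 IC50 (ng/mL or nmol/L) derived from CellTiter-Glo luminescence after 96 h exposure at 37 °C to serial dilutions of ADC or CPT free drug. Log-phase cells had been plated 24 h beforehand in RPMI 1640 containing 20% FBS.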

[7] = test system: B-lymphocyte cancer cells (SU-DHL4); assay: In vitro potency (CellTiter-Glo, 96 h), SU-DHL-4; conditions: Homo sapiens, SU-DHL-4, 96 h
Procedure, shortened: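 RPMI 1640/20% FBS cultures, log phase, plated 24 h → ADC titration → 4 d, 37 °C → luminescence → IC50, ng/mL.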

[8] = test system: renal carcinoma cells (786-O); assay: In vitro potency (CellTiter-Glo, 96 h), 786-O; conditions: Homo sapiens, 786-0, 96 h
Procedure, shortened: as §1

[9] = test system: non-small-cell lung cancer cells (Calu1); assay: In vitro potency (CellTiter-Glo, 96 h), Calu1; conditions: Homo sapiens, Calu-1, 96 h
Description: (§3) In vitro potency was assessed on multiple cancer cell lines. All cell lines were authenticated by STR profiling at IDEXX Bioresearch and cultured for no more than 2 months after resuscitation. Cells cultured in log-phase growth were seeded for 24 hours in 96-well plates containing […] RPMI 1640 supplemented with 20% FBS. Serial dilutions of antibody-drug conjugates in cell culture media were prepared at 4× working concentrations, and 50 μL of each dilution was added to the 96-well plates. Following addition of test articles, cells were incubated with test articles for 4 days at 37 0° C. After 96 hours, growth inhibition was assessed by CellTiterGlo® (Promega, Madison, WI) and luminescence was measured on a plate reader.
In Table 7, IC50 values for ADCs are given in ng/mL. Cell viability was determined by CellTiter-Glo staining after 96 h exposure to ADC. ND=Not Determined. Ag2 is an antibody targeting a ubiquitous and readily internalizable antigen. The cancer cell lines tested are renal carcinoma cells (786-0), melanoma cells (A2058), pancreatic cancer cells (BxPC3), non-small-cell lung cancer cells (Calu1), anaplastic large cell lymphoma cells (DEL, DELBVR, Karpas299), Hodgkin's lymphoma cells (L540cy), (Ls174T), breast cancer cells (MDA-MB-231), acute myeloid leukemia cells (MOLM-13), and B-lymphocyte cancer cells (SU-DHL4).
as §3, with “FBS.” for “FBS. Serial dilutions of antibody-drug conjugates in cell culture media were prepared at 4× working concentrations, and 50 μL of each dilution was added to the 96-well plates.”
Cell viability was determined by CellTiter-Glo staining after 96 h exposure to the compound. ND=Not Determined. The cancer cell lines tested are renal carcinoma cells (786-0), melanoma cells (A2058), pancreatic cancer cells (BxPC3), non-small-cell lung cancer cells (Calu1), anaplastic large cell lymphoma cells (DEL, DELBVR, Karpas299), Hodgkin's lymphoma cells (L540cy), (Ls 174T), breast cancer cells (MDA-MB-231), acute myeloid leukemia cells (MOLM-13), B-lymphocyte cancer cells (SU-DHL4), multiple myeloma cells (MM.1R), (U266), and melanoma cells (SK-MEL-5).
as §3, with “37°” for “37 0°”
In the following Tables IC50 values for ADCs and CPT free drugs are given in ng/mL and nmol/L concentrations. Cell viability was determined by CellTiter-Glo staining after 96 h exposure to ADC or CPT free drug.
Cell viability was determined by CellTiter-Glo staining after 96 h exposure to ADC. ND=Not Determined.

Ls174T cells = assay: In vitro potency (CellTiter-Glo, 96 h), Ls174T; conditions: Homo sapiens, LS174T
Procedure, shortened: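 Growth inhibition after 96 h at 37 °C with test article, measured by luminescence; cells in RPMI 1640, 20% FBS.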

[10] = test system: pancreatic cancer cells (BxPC3); assay: In vitro potency (CellTiter-Glo, 96 h), BxPC3; conditions: Homo sapiens, BXPC-3, 96 h
Procedure, shortened: as §2

[11] = read-out: IC50 (nmol/L) L540cy, CPT free drugs, Table 24, CellTiter-Glo after 96 h exposure
[12] = read-out: IC50 (nmol/L) MDAMB231, CPT free drugs, Table 24, CellTiter-Glo after 96 h exposure
[13] = read-out: IC50 (nmol/L) MOLM-13, CPT free drugs, Table 24, CellTiter-Glo after 96 h exposure
[14] = read-out: IC50 (nmol/L) Karpas299, CPT free drugs, Table 24, CellTiter-Glo after 96 h exposure
[15] = read-out: IC50 (nmol/L) SU-DHL-4, CPT free drugs, Table 24, CellTiter-Glo after 96 h exposure
[16] = read-out: IC50 (nmol/L) 786-O, CPT free drugs, Table 24, CellTiter-Glo after 96 h exposure
[17] = 96 h, read-out: IC50 (nmol/L) Ls174T, CPT free drugs, Table 24, CellTiter-Glo after 96 h exposure
[18] = read-out: IC50 (nmol/L) BxPC3, CPT free drugs, Table 24, CellTiter-Glo after 96 h exposure
[19] = CPT free drugs, Table 24, CellTiter-Glo after 96 h exposure, read-out: IC50 (nmol/L) L540cy
[20] = CPT free drugs, Table 24, CellTiter-Glo after 96 h exposure, read-out: IC50 (nmol/L) MDAMB231
[21] = CPT free drugs, Table 24, CellTiter-Glo after 96 h exposure, read-out: IC50 (nmol/L) MOLM-13
[22] = CPT free drugs, Table 24, CellTiter-Glo after 96 h exposure, read-out: IC50 (nmol/L) A2058
[23] = CPT free drugs, Table 24, CellTiter-Glo after 96 h exposure, read-out: IC50 (nmol/L) DELBVR
[24] = CPT free drugs, Table 24, CellTiter-Glo after 96 h exposure, read-out: IC50 (nmol/L) Karpas299
[25] = CPT free drugs, Table 24, CellTiter-Glo after 96 h exposure, read-out: IC50 (nmol/L) DEL
[26] = CPT free drugs, Table 24, CellTiter-Glo after 96 h exposure, read-out: IC50 (nmol/L) SU-DHL-4
[27] = CPT free drugs, Table 24, CellTiter-Glo after 96 h exposure, read-out: IC50 (nmol/L) 786-O
[28] = CPT free drugs, Table 24, CellTiter-Glo after 96 h exposure, read-out: IC50 (nmol/L) Calu1
[29] = CPT free drugs, Table 24, CellTiter-Glo after 96 h exposure, read-out: IC50 (nmol/L) Ls174T
[30] = CPT free drugs, Table 24, CellTiter-Glo after 96 h exposure, read-out: IC50 (nmol/L) BxPC3

Row | Structure (SMILES) | IC50 [1, 11] [nmol/L] | IC50 [2, 12] [nmol/L] | IC50 [3, 13] [nmol/L] | IC50 (melanoma cells (A2058); read-out: A2058 IC50) [nmol/L] | IC50 [5, 14] [nmol/L] | IC50 [7, 15] [nmol/L] | IC50 [8, 16] [nmol/L] | IC50 ([9]; read-out: Calu1 IC50) [nmol/L] | IC50 ([9]; read-out: IC50 (nmol/L) Calu1) [nmol/L] | IC50 (Ls174T cells; [17]) [nmol/L] | IC50 [10, 18] [nmol/L] | IC50 [1, 19] [nmol/L] | IC50 [2, 20] [nmol/L] | IC50 [3, 21] [nmol/L] | IC50 (melanoma cells (A2058); [22]) [nmol/L] | IC50 [4, 23] [nmol/L] | IC50 [5, 24] [nmol/L] | IC50 [6, 25] [nmol/L] | IC50 [7, 26] [nmol/L] | IC50 [8, 27] [nmol/L] | further results
1 | CC[C@@]1(O)C(=O)OCc2c1cc1n(c2=O)Cc2c-1nc1cc3c(cc1c2CN)CCO3 [Compound 2n] | 1 | 1 | 6 | 3 | 1 | 1 | 1 | 18 | 21 | 0.8 | 3 |  |  |  |  |  |  |  |  |  | IC50 ([1]; read-out: L540cy IC50, Table 28, CPT free drugs, Hodgkin's lymphoma cells L540cy, CellTiter-Glo): 2 nmol/L; IC50 ([2]; read-out: MDAMB231 IC50, Table 28, CPT free drugs, breast cancer cells MDA-MB-231, 96 h, CellTiter-Glo): 8 nmol/L; IC50 ([3]; read-out: MOLM-13 IC50, Table 28, CPT free drugs, acute myeloid leukemia cells MOLM-13, 96 h, CellTiter-Glo): 29 nmol/L; IC50 ([4]; read-out: DELBVR IC50, Table 28, CPT free drugs, anaplastic large cell lymphoma cells DELBVR, CellTiter-Glo): 1 nmol/L; IC50 ([5]; read-out: Karpas299 IC50, Table 28, CPT free drugs, anaplastic large cell lymphoma cells Karpas299, 96 h, CellTiter-Glo): 5 nmol/L; IC50 ([6]; read-out: DEL IC50, Table 28, CPT free drugs, anaplastic large cell lymphoma cells DEL, CellTiter-Glo): 1 nmol/L; IC50 ([7]; read-out: SU-DHL-4 IC50, Table 28, CPT free drugs, B-lymphocyte cancer cells SU-DHL4, 96 h, CellTiter-Glo): 1 nmol/L; IC50 ([8]; read-out: 786-O IC50, Table 28, CPT free drugs, renal carcinoma cells 786-O, 96 h, CellTiter-Glo): 5 nmol/L; IC50 (Ls174T cells; 96 h, read-out: Ls174T IC50, Table 28, CPT free drugs, Ls174T cells, 96 h, CellTiter-Glo): 4 nmol/L; IC50 ([10]; read-out: BxPC3 IC50, Table 28, CPT free drugs, pancreatic cancer cells BxPC3, 96 h, CellTiter-Glo): 3 nmol/L
2 | CC[C@@]1(O)C(=O)OCc2c1cc1n(c2=O)Cc2c-1nc1cc(F)c(C)c(Cl)c1c2CN [Compound 2y] | 1 | 15 | 16 |  | 2 | 1 | 3 |  | 15 | 3 | 6 |  |  |  |  |  |  |  |  |  | IC50 (melanoma cells (A2058); read-out: IC50 (nmol/L) A2058): 1 nmol/L; IC50 ([4]; read-out: IC50 (nmol/L) DELBVR, CPT free drugs, Table 24, CellTiter-Glo after 96 h exposure): 1 nmol/L; IC50 ([6]; read-out: IC50 (nmol/L) DEL, CPT free drugs, Table 24, CellTiter-Glo after 96 h exposure): 1 nmol/L
3 | CC[C@@]1(O)C(=O)OCc2c1cc1n(c2=O)Cc2c-1nc1cccc(F)c1c2CN [Compound 2p] |  |  |  |  |  |  |  |  |  |  |  | 7 | 19 | 24 | 11 | 8 | 27 | 4 | 14 | 14 | IC50 [9, 28]: 160 nmol/L; IC50 (Ls174T cells; [29]): 15.1 nmol/L; IC50 [10, 30]: 62 nmol/L
4 | CC[C@@]1(O)C(=O)OCc2c1cc1n(c2=O)Cc2c-1nc1cc3c(cc1c2CN(C)C)OCO3 [Compound 7ae] |  |  |  | 11 |  |  |  | 555 |  |  |  |  |  |  |  |  |  |  |  |  | IC50 ([1]; read-out: L540cy IC50, camptothecin free drug, 96 h): 20 nmol/L; IC50 ([2]; read-out: MDAMB231 IC50, camptothecin free drug, 96 h): 164 nmol/L; IC50 ([3]; read-out: MOLM-13 IC50, camptothecin free drug, 96 h): 165 nmol/L; IC50 ([4]; read-out: DELBVR IC50, camptothecin free drug, 96 h): 14 nmol/L; IC50 ([5]; read-out: Karpas299 IC50, camptothecin free drug, 96 h): 42 nmol/L; IC50 ([6]; read-out: DEL IC50, camptothecin free drug, 96 h): 8 nmol/L; IC50 ([7]; read-out: SU-DHL-4 IC50, camptothecin free drug, 96 h): 23 nmol/L; IC50 ([8]; read-out: 786-O IC50, camptothecin free drug, 96 h): 39 nmol/L; IC50 (Ls174T cells; 96 h, read-out: Ls174T IC50, camptothecin free drug, 96 h): 46 nmol/L; IC50 ([10]; read-out: BxPC3 IC50, camptothecin free drug, 96 h): 48 nmol/L
5 | CC[C@@]1(O)C(=O)OCc2c1cc1n(c2=O)Cc2c-1nc1cc(F)c(C)cc1c2CN [Compound 2h] |  |  |  |  |  |  |  |  |  |  |  | 3 | 2 | 14 | 1 | 0.8 | 3 | 0.5 | 2 | 3 | IC50 [9, 28]: 16 nmol/L; IC50 (Ls174T cells; [29]): 1.7 nmol/L; IC50 [10, 30]: 8 nmol/L
